This passage reports Tmax, AUC and Cmax results from patent US20110009482A1, “METHODS OF TREATING COPD” (Schering Corporation, priority 2007, published 2011).

A short description of the data set: Pharmacokinetics after oral administration to a human. The settings on record: in vivo.
Where [1] appears, read: single-dose oral administration of 30 mg to a human.

As a reminder, the Tmax is the time at which the peak concentration occurs. Broadly, the AUC is the area under the concentration-time curve, a measure of exposure. A high value points to more exposure. The Cmax is the maximum level reached in the sampled fluid or tissue. As for `CC[C@@H](Nc1c(Nc2cccc(C(=O)N(C)C)c2O)c(=O)c1=O)c1ccc(C)o1` [formula (1.0A)], the Tmax (oral administration to a human, read-out: median Tmax) was 0.5 to 2 h. In addition, under setting [1], the AUC lay in the range of 484 to 489 ng·h/mL and the Cmax lay in the range of 122 to 147 ng/mL.
